Measured values: US20220257540A1, “COMPOSITIONS AND METHODS FOR TREATMENT OF HEPATITIS B VIRUS INFECTION” (ANHUI RONGHANG BIOTECH DEVELOPMENT CO., LTD., priority 2019, published 2022)

Key:
[1] = test system: HBV GT C; test: In vitro anti-HBV efficacy in HBV-infected PXB-cells; assay type: cell-based; conditions: for Extracellular HBeAg: Day 27, 10 fold diluted sample
Experimental: Materials & Methods: PXB-cells was infected with HBV GT C. […] The anti-HBV therapeutic efficacy was measured by the analysis of extracellular HBV DNA, HBsAg, HBeAg, h-Alb, and intracellular HBV DNA/cceDNA levels. Entecavir was used as the positive control. The hepatocytes isolated from 3 mice were combined to seed culture plate. The cell density of mixed cell was 7.37×10^6 cells/mL. PXB-cells® are the fresh hepatocytes which are isolated from PXB-mice. Cells viability after isolation: >80%. Donor Hepatocytes were purchased from Corning, Incorporated (Tewksbury, Mass., USA), Lot: BD195 ([…]). […] Entecavir was purchased from Santa-cruz, Lot: 10914, Concentration: 1 mM. Plates was observed under microscopy and photographed.

[2] = biological target: P-gp (Homo sapiens, UniProt P08183); conditions: cited from earlier work
Sequence of P-gp (P08183 whole entry): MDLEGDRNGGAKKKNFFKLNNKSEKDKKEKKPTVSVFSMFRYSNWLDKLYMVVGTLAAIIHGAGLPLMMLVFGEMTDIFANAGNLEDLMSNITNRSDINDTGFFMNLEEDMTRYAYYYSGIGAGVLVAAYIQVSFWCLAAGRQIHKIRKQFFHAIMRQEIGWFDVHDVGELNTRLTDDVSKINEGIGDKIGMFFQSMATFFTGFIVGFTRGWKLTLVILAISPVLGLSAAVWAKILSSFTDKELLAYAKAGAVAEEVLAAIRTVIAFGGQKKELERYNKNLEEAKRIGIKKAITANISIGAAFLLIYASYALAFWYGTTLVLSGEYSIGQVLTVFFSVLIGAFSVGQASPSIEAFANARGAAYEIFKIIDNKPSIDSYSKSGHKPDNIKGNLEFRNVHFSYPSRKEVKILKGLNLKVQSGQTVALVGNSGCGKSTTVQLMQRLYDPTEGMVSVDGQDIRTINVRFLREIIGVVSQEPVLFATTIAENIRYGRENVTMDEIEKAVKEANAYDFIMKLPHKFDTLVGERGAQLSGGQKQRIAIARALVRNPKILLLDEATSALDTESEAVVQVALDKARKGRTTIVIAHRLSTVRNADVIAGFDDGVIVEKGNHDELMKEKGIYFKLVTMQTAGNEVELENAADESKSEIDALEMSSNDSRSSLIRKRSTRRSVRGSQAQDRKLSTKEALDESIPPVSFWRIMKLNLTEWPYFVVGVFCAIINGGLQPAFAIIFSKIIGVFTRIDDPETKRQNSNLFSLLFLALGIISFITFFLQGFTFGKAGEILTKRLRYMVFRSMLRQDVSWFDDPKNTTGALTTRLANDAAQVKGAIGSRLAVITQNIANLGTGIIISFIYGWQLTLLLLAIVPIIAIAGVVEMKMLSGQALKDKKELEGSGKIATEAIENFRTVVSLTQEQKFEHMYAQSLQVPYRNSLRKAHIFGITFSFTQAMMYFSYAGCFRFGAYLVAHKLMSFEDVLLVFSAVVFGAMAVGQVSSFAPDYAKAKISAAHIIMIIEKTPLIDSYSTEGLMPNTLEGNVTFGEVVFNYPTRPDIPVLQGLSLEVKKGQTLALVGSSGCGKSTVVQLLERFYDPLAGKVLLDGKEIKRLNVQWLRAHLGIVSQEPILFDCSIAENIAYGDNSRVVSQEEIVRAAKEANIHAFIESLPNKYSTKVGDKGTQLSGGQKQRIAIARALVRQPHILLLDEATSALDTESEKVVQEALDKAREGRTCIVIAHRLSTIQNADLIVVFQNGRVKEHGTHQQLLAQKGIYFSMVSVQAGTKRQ

C=C1[C@H](CO)[C@@H](O)C[C@@H]1n1cnc2c(=O)[nH]c(N)nc21 [Entecavir]
Extracellular HBV DNA ([1]; Entecavir 9.8 pM, Day 27): 6.36 Log copies/mL | Extracellular HBsAg ([1]; Entecavir 9.8 pM, Day 27): 16.0 IU/mL | Intracellular HBV DNA ([1]; Entecavir 9.8 pM, Day 27): 91546 copies/100 ng DNA | Intracellular cccDNA ([1]; Entecavir 9.8 pM, Day 27): 125 copies/100 ng DNA | Extracellular HBeAg ([1]; Entecavir 9.8 pM): 11.6 C.O.I | Extracellular HBV DNA ([1]; Entecavir 19.5 pM, Day 27): 5.76 Log copies/mL | Extracellular HBsAg ([1]; Entecavir 19.5 pM, Day 27): 14.2 IU/mL | Intracellular HBV DNA ([1]; Entecavir 19.5 pM, Day 27): 53766 copies/100 ng DNA | Intracellular cccDNA ([1]; Entecavir 19.5 pM, Day 27): 82 copies/100 ng DNA | Extracellular HBeAg ([1]; Entecavir 19.5 pM): 10.0 C.O.I | Extracellular HBV DNA ([1]; Entecavir 39.1 pM, Day 27): 5.06 Log copies/mL | Extracellular HBsAg ([1]; Entecavir 39.1 pM, Day 27): 12.2 IU/mL | Intracellular HBV DNA ([1]; Entecavir 39.1 pM, Day 27): 30701 copies/100 ng DNA | Intracellular cccDNA ([1]; Entecavir 39.1 pM, Day 27): 69 copies/100 ng DNA | Extracellular HBeAg ([1]; Entecavir 39.1 pM): 8.1 C.O.I | Extracellular HBV DNA ([1]; Entecavir 78.1 pM, Day 27): 4.66 Log copies/mL | Extracellular HBsAg ([1]; Entecavir 78.1 pM, Day 27): 15.7 IU/mL | Intracellular HBV DNA ([1]; Entecavir 78.1 pM, Day 27): 14257 copies/100 ng DNA | Intracellular cccDNA ([1]; Entecavir 78.1 pM, Day 27): 82 copies/100 ng DNA | Extracellular HBeAg ([1]; Entecavir 78.1 pM): 9.8 C.O.I | Extracellular HBV DNA ([1]; Entecavir 156.3 pM, Day 27): 4.56 Log copies/mL | Extracellular HBsAg ([1]; Entecavir 156.3 pM, Day 27): 15.1 IU/mL | Intracellular HBV DNA ([1]; Entecavir 156.3 pM, Day 27): 5620 copies/100 ng DNA | Intracellular cccDNA ([1]; Entecavir 156.3 pM, Day 27): 61 copies/100 ng DNA | Extracellular HBeAg ([1]; Entecavir 156.3 pM): 9.6 C.O.I | Extracellular HBV DNA ([1]; Entecavir 312.5 pM, Day 27): 4.46 Log copies/mL | Extracellular HBsAg ([1]; Entecavir 312.5 pM, Day 27): 14.3 IU/mL | Intracellular HBV DNA ([1]; Entecavir 312.5 pM, Day 27): 3752 copies/100 ng DNA | Intracellular cccDNA ([1]; Entecavir 312.5 pM, Day 27): 34 copies/100 ng DNA | Extracellular HBeAg ([1]; Entecavir 312.5 pM): 9.4 C.O.I | Extracellular HBV DNA ([1]; Entecavir 625 pM, Day 27): 4.46 Log copies/mL | Extracellular HBsAg ([1]; Entecavir 625 pM, Day 27): 13.0 IU/mL | Intracellular HBV DNA ([1]; Entecavir 625 pM, Day 27): 2954 copies/100 ng DNA | Intracellular cccDNA ([1]; Entecavir 625 pM, Day 27): + | Extracellular HBeAg ([1]; Entecavir 625 pM): 8.9 C.O.I | Extracellular HBV DNA ([1]; Entecavir 1.25 nM, Day 27): 4.46 Log copies/mL | Extracellular HBsAg ([1]; Entecavir 1.25 nM, Day 27): 11.2 IU/mL | Intracellular HBV DNA ([1]; Entecavir 1.25 nM, Day 27): 3031 copies/100 ng DNA | Intracellular cccDNA ([1]; Entecavir 1.25 nM, Day 27): + | Extracellular HBeAg ([1]; Entecavir 1.25 nM): 6.9 C.O.I | Extracellular HBV DNA ([1]; Entecavir 5 nM, Day 27): 4.26 Log copies/mL | Extracellular HBsAg ([1]; Entecavir 5 nM, Day 27): 10.9 IU/mL | Intracellular HBV DNA ([1]; Entecavir 5 nM, Day 27): 2974 copies/100 ng DNA | Intracellular cccDNA ([1]; Entecavir 5 nM, Day 27): 33 copies/100 ng DNA | Extracellular HBeAg ([1]; Entecavir 5 nM): 7.1 C.O.I | Extracellular HBV DNA ([1]; Entecavir 10 nM, Day 27): 4.46 Log copies/mL | Extracellular HBsAg ([1]; Entecavir 10 nM, Day 27): 11.6 IU/mL | Intracellular HBV DNA ([1]; Entecavir 10 nM, Day 27): 2936 copies/100 ng DNA | Intracellular cccDNA ([1]; Entecavir 10 nM, Day 27): + | Extracellular HBeAg ([1]; Entecavir 10 nM): 7.4 C.O.I | anti-HBV efficacy ([1]; HBV-infected PXB-cells, Day 27): anti-HBV efficacy in a dose dependent manner

CCOC/C=C/c1ccc(-c2nc(-c3ccc(NC(C)C)cc3)c(-c3ccc(NC(C)C)cc3)[nH]2)cc1 [OC144093, 4-[2-[4-[(E)-3-ethoxyprop-1-enyl]phenyl]-4-[4-(propan-2-ylamino)phenyl]-1H-imidazol-5-yl]-N-propan-2-ylaniline]
potency relative to the first and second-generation P-gp inhibitors [2]: about 10 fold

COc1cc2c(cc1OC)CN(CCc1ccc(NC(=O)c3cc(OC)c(OC)cc3NC(=O)c3cnc4ccccc4c3)cc1)CC2 [XR9576, N-[2-[[4-[2-(6,7-Dimethoxy-3,4-dihydro-1H-isoquinolin-2-yl)ethyl]phenyl]c-arbamoyl]-4,5-dimethoxyphenyl]quinoline-3-carboxamide]
potency relative to the first and second-generation P-gp inhibitors [2]: about 10 fold
